What was measured:
[1] = test system: normal human umbilical vein endothelial cells (HUVEC); assay: Vasospastic cell model, PGE2 production by ELISA after erythrocyte lysis solution; assay type: cell-based; conditions: lysis solution from blood pretreated with 10 wt % sugar, 6 hours
Description: A vasospastic cell model was constructed by using normal human umbilical vein endothelial cells (HUVEC), for study on whether trehalose has anti-inflammatory action.
Physiological saline (Sal), 10 wt % trehalose (tre) and 10 wt % maltose (Mal) were added respectively to the bloods collected from a rat (10 to 12 weeks of age, male) for pretreatment, and the mixture was processed in an ultrasonic homogenizer, to prepare an erythrocyte lysis solution. The HUVEC cells were inoculated on a plate in an amount of 1×10^5 cells on the day before the addition of the lysis solution and were cultured in an incubator (37° C., CO2: 5%). The culture medium used was endothelial cell basic medium (EBM-2) comprising 2% fetalbovine serum (FBS), hEGF (human epidermal growth factor), heparin, hydrocortisone, ascorbic acid, VEGF (vascular endothelial growth factor), R3-IGF-1 (recombinant insulin-like growth factor-1), gentamicin and amphotericin-B. The next day, the lysis solution in an amount of 1/10 of the medium was added to the HUVEC cells, and the mixture was incubated in an incubator (37° C., CO2: 5%) for 6 hours. The medium was then collected for ELISA analysis. […] The lysis solution-untreated group (added respectively with physiological saline, trehalose and maltose) was also analyzed similarly as a control group (FIG. 10: right column 3). […]

[2] = test system: rat macrophage-like cells (RAW264.7); assay: Vasospastic cell model, PGE2/PGD2 production by ELISA after erythrocyte lysis solution; assay type: cell-based; conditions: blood pretreated with 10 wt % sugar, medium 5 wt % sugar, lysis solution 18 hours
Description: A vasospastic cell model was constructed by using […] macrophage-like cells (RAW264.7) for study on whether trehalose has anti-inflammatory action.
Physiological saline (Sal), 10 wt % trehalose (Tre) and 10 wt % maltose (Mal) were added respectively to the blood collected from a rat (10 to 12 weeks of age, male) for pretreatment, and the mixture was processed in an ultrasonic homogenizer, to prepare an erythrocyte lysis solution. 1×10^6 or 2×10^6 of RAW264.7 cells were inoculated on a plate on the day before addition of the lysis solution, and were cultured in a medium comprising physiological saline, 5 wt % trehalose and 5 wt % maltose (respectively, as abbreviated to Sal, Tre and Mal) placed in an incubator (37° C., CO2: 5%). The culture medium used was Dulbecco's Modified Eagle Medium (D-MEM) comprising 10% fetal bovine serum (FBS), penicillin and streptomycin. The next day, the lysis solution was added in an amount of 1/10 of the medium, and the mixture was incubated in the incubator (37° C., CO2: 5%) for 18 hours. Then, the cells were washed with PBS; new medium was added; and the mixture was placed in the incubator (37° C., CO2: 5%). The medium was collected after one hour for ELISA analysis. The ELISA was carried out by using Prostaglandin E2 EIA kit-monoclonal (manufactured by Cayman) or Prostaglandin D2 EIA kit (manufactured by Cayman). […] For control, a lysis solution-untreated group (added respectively with physiological saline, trehalose and maltose) was also analyzed similarly (FIG. 8, FIG. 9: right column 3). Three or more independent tests were carried out to obtain the average, and the standard deviation obtained was expressed with error bars.

basilar artery = assay: Rabbit subarachnoid hemorrhage model, histological analysis of basilar artery; assay type: in vivo; conditions: group II, self blood + 15 wt % trehalose solution
Description: The vasospasm-inhibiting action of trehalose was analyzed via a histological method by using a rabbit subarachnoid hemorrhage model.
After the occipital region of a NZW rabbit (14 weeks of age, approximately 3.0 kg, male) was shaved and the cisterna magna was punctured, blood samples [group I: self blood+physiological saline (blood+Sal), group II: self blood+15 wt % trehalose solution (blood+Tre) and group III: physiological saline (Sal)] were injected into different test animals respectively in an amount of 3 ml. Additionally, 2 ml of blood sample and physiological saline (total of 5 ml) were injected to the same test animal by a similar method, two days later. Two days after the second administration, the animals were perfused with 4% paraformaldehyde for stabilization, and the brain stem and the basilar arteries were collected. The tissue was embedded in paraffin, cut into a section of 5 μm in thickness, and observed after hematoxylin-eosin staining (HE staining) The results are shown in FIG. 12.

femoral artery = assay: Vasospasm model using rat femoral artery exposed to self blood; assay type: in vivo; conditions: 7 days after exposure; for arterial sectional area relative to saline-exposed artery: SD rat femoral artery
From the text: Twenty seven male SD rats of 10 weeks of age were divided into three groups randomly. These rats were properly anesthetized. The groin was cut open and then the femoral artery was divided and separated sufficiently from the surrounding soft tissue etc. The femoral artery was covered with a catheter. The catheter used was a 10 mm-length vinyl chloride cylindrical catheter. Self blood collected from femoral vein was fed into the space between the catheter and vascular adventitia and the bottom face of the cylinder was sealed with an adhesive agent. The adhesive agent used was a cyanoacrylate-based adhesive agent. The operations above were carried out aseptically and surgically. Then, the surgical injury was closed. The lumen of the blood-exposed femoral artery narrowed and the tunica intima and tunica media thickened, after peaking in about 7 days after exposure. This model is a model according to “Nakamura et al., Japan Neurosurgical Society, Abstract of 49th Annual Meeting 199, 1990”.
Left and right femoral arteries (FAs) of each rat were exposed to the substances shown in the following Table 1 by using the model above. 4% paraformaldehyde (PFA) solution was perfused, 7 days after commencement of exposure and each femoral artery was fixed and collected. The collected femoral artery (FA) was immersed in 4% PFA, and part of the femoral artery was immersed in sucrose solution and then embedded as frozen. A section of 5 μm in thickness was obtained with cryostat from the frozen femoral artery thus obtained. The section was subjected to hematoxylin-eosin staining (HE staining). The HE-stained sample was analyzed by using an image analyzer equipped with an image analysis program, and the sectional area of the lumen and the thickness of the tunica media in each tissue were determined. The radius of the blood vessel was determined from the peripheral length of the lumen of the blood vessel, and the lumen sectional area was calculated from it. In addition, the distance between the internal and external elastic layers was measured at four points, and the average thereof was determined, to obtain the thickness of the tunica media. There were cases when the blood vessel was cleaved or was not sufficiently fixed during analysis, and thus 6 samples, which were analyzed under favorable conditions, among 9 samples prepared in each group, were selected for collection of data.

cerebral vasospasm = assay: Rabbit subarachnoid hemorrhage model, intracerebral blood flow by perfusion-MRI; assay type: in vivo; conditions: group II, self blood + 15 wt % trehalose solution into cisterna magna, two days after second administration; blood + saline group approximately 60%
Description: Intracerebral blood flow was evaluated via perfusion-MRI method by using a rabbit subarachnoid hemorrhage model for analysis of the vasospasm-inhibiting action of trehalose.
After magnetic resonance imaging (MRI) of a NZW rabbit (14 weeks of age, approximately 3.0 kg, male) in the normal state, the occipital region was shaved and the cisterna magna was punctured, and blood samples [group I: self blood+physiological saline (blood+Sal), group II: self blood+15 wt % trehalose solution (blood+Tre) and group III: physiological saline (Sal)] were injected into different test animals respectively in an amount of 3 ml. Additionally, 2 ml of blood sample and physiological saline (total of 5 ml) were injected to the same test animals by a similar method, two days later. Two days after the second administration, the influence of trehalose on cerebral vasospasm was evaluated via perfusion-MRI method (cerebrovascular normality is calculated by injecting a contrast medium through otic vein into the brain and determining the degree of recovery in brightness quantitatively) by using a high-definition MRI apparatus for animals (4.7 tesla, resolution: 50 μm) manufactured by Varian. Three independent tests were carried out to obtain the average, and the standard deviation obtained was expressed with error bars.

[3] = two days after second administration

SMILES | PGE2 production (induction of inflammatory reaction) versus lysis solution-untreated control group [1] | amount of PGD2 produced versus lysis solution-untreated control group [2] | amount of PGE2 produced versus lysis solution-untreated control group [2] | vasospasm with respect to group I (self blood + physiological saline) (basilar artery; basilar artery histology) | blood vessel diameter of basilar artery (HE staining) (basilar artery; [3]) | tunica media thickness of basilar artery (HE staining) (basilar artery; [3]) | arterial sectional area relative to saline-exposed artery (femoral artery; group II, trehalose 3.75 wt % (blood:15% TL solution = 3:1)) [%] | tunica media thickness (after exposure to blood + trehalose / after exposure to physiological saline) (femoral artery; group II, trehalose 3.75 wt %) [times] | arterial sectional area relative to saline-exposed artery (femoral artery; group III, trehalose 7.5 wt % (blood:30% TL solution = 3:1)) [%] | tunica media thickness (after exposure to blood + trehalose / after exposure to physiological saline) (femoral artery; group III, trehalose 7.5 wt %) [times] | normality of cerebral blood vessel (brightness after treatment/before treatment), physiological saline group = 100% (cerebral vasospasm)
OC[C@H]1O[C@H](O[C@H]2[C@H](O)[C@@H](O)C(O)O[C@@H]2CO)[C@H](O)[C@@H](O)[C@@H]1O (mixture of isomers) [maltose, reference compound] | inflammatory reaction was induced | inflammatory reaction was also induced | inflammatory reaction was also induced |  |  |  |  |  |  |  | 
OC[C@H]1O[C@H](O[C@H]2O[C@H](CO)[C@@H](O)[C@H](O)[C@H]2O)[C@H](O)[C@@H](O)[C@@H]1O [trehalose] | induction of inflammatory reaction was suppressed | not increased | not increased | suppressed definitely | no reduction of the blood vessel diameter | some increase in tunica media thickness | 86 | 0.93 | 39 | 1.74 | approximately 80%

Source: patent US8283337B2, “Therapeutic or prophylactic agent for vasoconstriction” (Next21 K.K., priority 2007, dated 2012)
